Structures can show the parent of a compound that is named as a salt. Where two headings read alike, the source gives them in different places.
Key:
[1] = molecular target: T1, airway epithelial sodium currents (sodium channel) (UniProt A0A8I3MKE6+A0A8I3Q679+Q95165); assay: Sodium channel blocking activity: inhibition of short circuit current (ISC) in airway epithelial monolayers mounted in Ussing chambers; type: cell-based, human, dog, sheep or rodent; conditions: for Fold Amiloride** (PSA 4022 = 100): Cyclic Pyrazinoylguanidines, relative potency for PSA 4022 = 100 using EC50 from PSA 4022 in same run; for EC50: Selected Cyclic Pyrazinoylguanidines (Formula III), mean ± spread
T1 sequence (A0A8I3MKE6 1-646): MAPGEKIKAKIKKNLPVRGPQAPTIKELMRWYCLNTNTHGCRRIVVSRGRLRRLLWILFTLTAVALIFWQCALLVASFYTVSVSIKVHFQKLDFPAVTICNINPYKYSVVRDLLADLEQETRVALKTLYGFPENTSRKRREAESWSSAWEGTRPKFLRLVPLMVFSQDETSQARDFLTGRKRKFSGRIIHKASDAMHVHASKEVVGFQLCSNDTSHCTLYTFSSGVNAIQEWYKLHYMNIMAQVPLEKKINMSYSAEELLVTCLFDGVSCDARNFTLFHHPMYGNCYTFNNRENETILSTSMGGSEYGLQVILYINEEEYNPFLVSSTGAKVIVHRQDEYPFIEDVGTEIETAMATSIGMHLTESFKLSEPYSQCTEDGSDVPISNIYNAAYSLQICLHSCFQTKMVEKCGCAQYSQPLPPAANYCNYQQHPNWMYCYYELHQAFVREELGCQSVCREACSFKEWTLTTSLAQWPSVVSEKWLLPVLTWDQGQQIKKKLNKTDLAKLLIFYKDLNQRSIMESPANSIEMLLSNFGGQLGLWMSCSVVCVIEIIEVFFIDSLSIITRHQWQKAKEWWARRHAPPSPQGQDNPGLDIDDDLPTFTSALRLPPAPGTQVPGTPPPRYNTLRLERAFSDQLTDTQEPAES
T1 sequence (A0A8I3Q679 1-649): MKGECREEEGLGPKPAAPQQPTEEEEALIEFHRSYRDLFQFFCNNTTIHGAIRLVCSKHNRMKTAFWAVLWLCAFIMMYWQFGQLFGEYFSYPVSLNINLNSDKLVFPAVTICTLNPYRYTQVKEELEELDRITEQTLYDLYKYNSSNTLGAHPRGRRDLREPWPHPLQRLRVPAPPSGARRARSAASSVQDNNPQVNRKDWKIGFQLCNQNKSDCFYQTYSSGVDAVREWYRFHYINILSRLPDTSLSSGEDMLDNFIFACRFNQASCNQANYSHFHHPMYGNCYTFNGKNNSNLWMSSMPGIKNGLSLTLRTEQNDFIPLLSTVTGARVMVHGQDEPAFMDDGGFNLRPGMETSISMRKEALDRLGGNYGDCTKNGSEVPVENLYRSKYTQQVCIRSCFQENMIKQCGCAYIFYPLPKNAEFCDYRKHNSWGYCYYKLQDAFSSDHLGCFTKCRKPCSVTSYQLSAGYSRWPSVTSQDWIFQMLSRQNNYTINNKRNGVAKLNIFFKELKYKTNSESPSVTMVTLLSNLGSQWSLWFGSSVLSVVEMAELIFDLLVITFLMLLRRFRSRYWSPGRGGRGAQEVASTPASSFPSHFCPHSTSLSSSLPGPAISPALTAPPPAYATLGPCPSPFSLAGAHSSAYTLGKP
T1 sequence (Q95165 1-641): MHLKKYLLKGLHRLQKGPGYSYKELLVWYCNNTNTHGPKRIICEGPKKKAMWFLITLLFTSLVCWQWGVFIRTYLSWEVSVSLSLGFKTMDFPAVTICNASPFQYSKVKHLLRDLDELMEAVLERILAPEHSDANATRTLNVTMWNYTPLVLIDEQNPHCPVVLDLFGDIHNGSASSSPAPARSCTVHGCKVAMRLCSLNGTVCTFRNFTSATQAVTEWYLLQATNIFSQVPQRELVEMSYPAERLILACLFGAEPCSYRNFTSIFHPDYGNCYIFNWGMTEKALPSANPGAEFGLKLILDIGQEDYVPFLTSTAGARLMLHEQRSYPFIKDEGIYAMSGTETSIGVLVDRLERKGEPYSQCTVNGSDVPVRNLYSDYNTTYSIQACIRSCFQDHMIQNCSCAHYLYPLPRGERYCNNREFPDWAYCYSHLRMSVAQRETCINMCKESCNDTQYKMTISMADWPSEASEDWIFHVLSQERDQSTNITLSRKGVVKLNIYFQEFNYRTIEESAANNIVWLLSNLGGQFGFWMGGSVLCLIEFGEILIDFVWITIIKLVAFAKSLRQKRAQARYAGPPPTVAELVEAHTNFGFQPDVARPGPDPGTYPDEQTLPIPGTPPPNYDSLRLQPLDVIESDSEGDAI
Experimental: In Vitro Measure of Sodium Channel Blocking Activity and Reversibility
One assay used to assess mechanism of action and/or potency of the compounds of the present invention involves the determination of lumenal drug inhibition of airway epithelial sodium currents measured under short circuit current (ISC) using airway epithelial monolayers mounted in Ussing chambers. Cells obtained from freshly excised human, dog, sheep or rodent airways are seeded onto porous 0.4 micron Snapwell™ Inserts (CoStar), cultured at air-liquid interface (ALI) conditions in hormonally defined media, and assayed for sodium transport activity (ISC) while bathed in Krebs Bicarbonate Ringer (KBR) in Using chambers. All test drug additions are to the lumenal bath with half-log dose addition protocols (from 1×10^−11 M to 3×10^−5 M), and the cumulative change in ISC (inhibition) recorded. All drugs are prepared in dimethyl sulfoxide as stock solutions at a concentration of 1×10^−2 M and stored at −20° C. Eight preparations are typically run in parallel; two preparations per run incorporate amiloride and/or benzamil as positive controls. After the maximal concentration (5×10^−5 M) is administered, the lumenal bath is exchanged three times with fresh drug-free KBR solution, and the resultant ISC measured after each wash for approximately 5 minutes in duration. Reversibility is defined as the percent return to the baseline value for sodium current after the third wash. All data from the voltage clamps are collected via a computer interface and analyzed off-line.
Dose-effect relationships for all compounds are considered and analyzed by the Prism 3.0 program. IC50 values, maximal effective concentrations, and reversibility are calculated and compared to amiloride and benzamil as positive controls.

Structure (SMILES) | melting point | Fold Amiloride** (PSA 4022 = 100) [1] | other results
N=C(NCCOCCOCCN)NC(=O)c1nc(Cl)c(N)nc1N | 87 to 90 °C | – | –
CC(C)(C)OC(=O)NCCCCCCCCCCNC(=N)NC(=O)c1nc(Cl)c(N)nc1N | 186 to 188 °C | – | –
CC(C)(C)OC(=O)N=C(NCCCCCCCCNC(=N)NC(=O)c1nc(Cl)c(N)nc1N)NC(=O)OC(C)(C)C | 208 to 210 °C (dec.) | – | –
CC(C)(C)OC(=O)NCCCCCCCCCCCNC(=N)NC(=O)c1nc(Cl)c(N)nc1N | 82 to 84 °C | – | –
N=C(NCCCCc1ccc(OCC(=O)NCC(N)=O)cc1)NC(=O)c1nc(Cl)c(N)nc1N (as salt: HCl) [compound 16314, N-carbamoylmethyl-2-(4-{4-[N′-(3,5-diamino-6-chloropyrazine-2-carbonyl)guanidino]butyl}phenoxy)acetamide] | 178 to 180 °C (dec.) | – | –
N=C(N)NCCOCCOCCNC(=N)NC(=O)c1nc(Cl)c(N)nc1N (as salt: hydrochloride) | 108 to 112 °C (dec.) | – | –
N=C(NCCCOCCCN)NC(=O)c1nc(Cl)c(N)nc1N (as salt: hydrochloride) | 164 to 166 °C (dec.) | – | –
N=C(N)NCCCOCCCNC(=N)NC(=O)c1nc(Cl)c(N)nc1N (as salt: hydrochloride) | 72 to 75 °C (dec.) | – | –
CN(C)C(=O)COc1ccc(CCCCNC(=N)NC(=O)c2nc(Cl)c(N)nc2N)cc1 (as salt: hydrochloride) [compound 16313, 2-(4-{4-[N-(3,5-diamino-6-chloropyrazine-2-carbonyl)guanidino]-butyl}phenoxy)-N,N-dimethylacetamide hydrochloride] | 130 to 132 °C (dec.) | – | –
N=C(NCCCCc1ccc(OCC(=O)Nc2ncc[nH]2)cc1)NC(=O)c1nc(Cl)c(N)nc1N (as salt: hydrochloride) [compound 16437, 2-(4-{4-[N′-(3,5-diamino-6-chloropyrazine-2-carbonyl)guanidino]-butyl}phenoxy)-N-(1H-imidazol-2-yl)acetamide dihydrochloride] | 172 to 174 °C | – | –
N=C(NCCCCCCN)NC(=O)c1nc(Cl)c(N)nc1N (as salt: hydrochloride) [compound 18706, N-(6-aminohexyl)-N′-(3,5-diamino-6-chloropyrazine-2-carbonyl)guanidine dihydrochloride] | > 240 °C | – | –
Cl.Cl.Cl.N=C(NCCCCC1CCN(CCN)CC1)NC(=O)c1nc(Cl)c(N)nc1N [compound 25455, N-{4-[1-(2-Aminoethyl)piperidin-4-yl]butyl}-N′-(3,5-diamino-6-chloropyrazine-2-carbonyl)guanidine trihydrochloride] | – | 5 ± 1 | EC50 ([1]; read-out: EC50): 0.104 ± 0.032 µM
N=C(NCCCCC1CCN(CC(O)CO)CC1)NC(=O)c1nc(Cl)c(N)nc1N (centres unmarked) [compound 25456, N-(3,5-Diamino-6-chloropyrazine-2-carbonyl)-N′-{4-[1-(2,3-dihydroxypropyl)-piperidin-4-yl]butyl}guanidine] | – | 6 ± 2 | EC50 ([1]; read-out: EC50): 0.106 ± 0.034 µM
N=C(NCCCCC1CCN(CCCN)CC1)NC(=O)c1nc(Cl)c(N)nc1N [compound 25510, N-{4-[1-(3-Aminopropyl)piperidin-4-yl]butyl}-N′-(3,5-diamino-6-chloropyrazine-2-carbonyl)guanidine trihydrochloride] | – | 3 ± 9 | EC50 [1]: 0.061 ± 0.023 µM
CC(C)(C)OC(=O)N=C(NCCCN1CCC(CCCCNC(=N)NC(=O)c2nc(Cl)c(N)nc2N)CC1)NC(=O)OC(C)(C)C [compound 25569, N-(3,5-Diamino-6-chloropyrazine-2-carbonyl)-N′-{4-[1-(3-[N″,N′″-bis-tert-butoxycarbonyl]guanidinopropyl)piperidin-4-yl]butyl}guanidine] | – | 41 ± 9 | EC50 ([1]; read-out: EC50): 0.016 ± 0.003 µM
Cl.Cl.Cl.N=C(N)NCCCN1CCC(CCCCNC(=N)NC(=O)c2nc(Cl)c(N)nc2N)CC1 [compound 25795, N-(3,5-Diamino-6-chloropyrazine-2-carbonyl)-N′-{4-[1-(3-guanidinopropyl)piperidin-4-yl]butyl}guanidine trihydrochloride] | – | 18 ± 7 | –
